Structures can show the parent of a compound that is named as a salt. Where two headings read alike, the source gives them in different places. Where only a bound is given, the exact number is not on record here.

The text below walks through data of US20040266766A1, “Selective urokinase inhibitors” (Wilex AG, priority 2001, published 2004).

Data set [1] deals with rat breast adenocarcinoma cells. The settings on record: after i.v. inoculation of rat breast adenocarcinoma cells; cited from earlier work.
The target of a further data set is PK (Homo sapiens, UniProt P03952). Briefly: In vitro inhibition of PK (Ki). The class given is biochemical. The settings on record: summary table. In short, it runs like this: (§1)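 Chromogenic read-out in 0.05 mol/l Tris, 0.154 mol/l NaCl, pH 8.0, with inhibitor, substrate (Pefachrome uPA, Pefachrome PL or Pefabloc TH) and protease, incubated 10 min at 30 °C. Absorbance at 405 nm was read after ca. 30 min (30 cycles). Ki was derived by Dixon linear regression.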

The next data set concerns mammary carcinoma BN-472. Briefly: Tumor spreading, tumor growth and metastasizing in a rat breast cancer model. It is filed as in vivo, brown Norwegian rats. To be noted: 0.3 mg/kg daily subcutaneously, 4 weeks. The protocol:
10-25 mm^3 of transplantable metastasising mammary carcinoma BN-472 breast cancer tumor fragments from donor rats were transplanted orthotopically under the mammary fat pad. (Day 0) into 6 to 8 weeks old female brown Norwegian rats. Subcutaneous treatment was started 5 days after tumor inoculation. Each group consisted of 18 animals. The treatment group received a daily dose of 0.3 mg/kg body weight subcutaneously. The treatment-was carried out over a period of 4 weeks.
The dimensions of the subcutaneous tumors and the weight of the animals were determined weekly. At the end of the treatment the animals were sacrificed and tumor weights, organ weights and the number of metastases in relevant tissues were determined.
The data were analyzed using the SigmaStat Vers.2.03 statistical package. Tumor sizes, tumor weights and the weights of the organs were checked with the Shapiro-Wilk W-test for normality of distribution (Royston P., Approximating the Shapiro-Wilk W-test for non-normality. Statistics and Computing 1992, 2:117-119). For each parameter the Shapiro-Wilk W-tests were performed on all data (e.g., tumor weights of all rats), and separately for each treatment group. If one of the P-values was <0.05 the variable was considered to be abnormally distributed and the Mann-Whitney U-test was used to test for significance levels of differences. The Mann-Whitney U-test was used to test for differences in weights of the axillary lymph nodes, intra peritoneal lymph nodes, tumor, and the number of lung foci. Primary and metastatic tumor data at the end of the treatment period were graphically represented using the Box-Whisker graphs, with the box showing the inter-quartile range of values, with a horizontal line at the median value. Whiskers represent the 5th and 95th percentile of values, and the individual values are indicated by dots. The unadjusted level for statistical significance was α=0.05. All tests were two-sided.

In data set [2] the target is T1, Plasmin (Homo sapiens, UniProt P00747). The experiment in a line: In vitro inhibition of plasmin (Ki according to Dixon). The class given is biochemical. The protocol: In order to determine the inhibitory activity, 200 μl Tris buffer (0.05 mol/l containing the inhibitor, 0.154 mol/l NaCl, pH 8.0), 25 μl substrate (Pefachrome uPA, Pefachrome PL or Pefabloc TH in H2O; Pentapharm Ltd, Basle, Switzerland) and 50 μl urokinase (Calbiochem-Novabiochem GmbH, Bad Soden, Germany) or another appropriate protease e.g. plasmin, thrombin or FXa are incubated for 10 minutes at 30° C. After ca. 30 minutes and 30 cycles the absorption is determined at 405 nm by means of a microplate reader (Mediators PHL, Aureon Biosystems, Vienna, Austria). The Ki values were determined according to Dixon by linear regression using a computer program.

Data set [3] is described as follows: Oral bioavailability and plasma kinetics in mice (serum concentration). The class given is in vivo, Balb/c mice. To be noted: mouse; for concentration at 20 min / concentration at 40 min / concentration at 60 min: female, Balb/c, serum, po; for concentration at 20 min: sample at 20 minutes; for concentration at 40 min: sample at 40 minutes; for concentration at 60 min: sample at 60 minutes; for c in the serum 1st analysis / c in the serum 2nd analysis: 10 mg/kg i.v.

Data set [4] concerns the target T2, Thrombin (Homo sapiens, UniProt P00734). Briefly: In vitro inhibition of thrombin (Ki according to Dixon). It is filed as biochemical. In short, it runs like this: as §1
The target of the next data set is FXa (Homo sapiens, UniProt P00742). The experiment in a line: In vitro inhibition of FXa (Ki according to Dixon). The class given is biochemical. In short, it runs like this:
as §1

The next data set relates to Caco-2 cell monolayers. The experiment in a line: Caco-assay: transport across Caco-2 cell monolayers. It is filed as in vitro ADME, human. To be noted: for % amount in the basolateral compartment: 10 μg/ml apical, four hours. An outline of the steps: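 Caco-2 monolayers grown three weeks on 0.4 μm polycarbonate filters; compounds applied apically at 10 μg/ml in HBSS/30 mM HEPES pH 7.2 for 4 h. Apical and basolateral samples quantified by scintillation counting, integrity checked by TEER; triplicate experiments.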

Another data set has as its target T3, urokinase (uPA) (Homo sapiens, UniProt P00749).
T3 construct: purchased Calbiochem-Novabiochem GmbH, Bad Soden, Germany
The experiment in a line: In vitro inhibition of urokinase (Ki according to Dixon, chromogenic substrate). It is filed as biochemical. In short, it runs like this: as §1

The target in data set [5] is T2, Thrombin. Briefly: In vitro inhibition of thrombin by WX-508 (Example 15). It is filed as biochemical. The protocol:
(§2) In order to determine the uPA inhibitory activity, 200 μl Tris-buffer (0.05 mol/l containing the inhibitor, 0.154 mol/l NaCl, pH 8.0), 25 μl substrate (Pefachrome uPA or BZ-O-Ala-Gly-Arg-pNA in H2O; Pentapharm Ltd., Basle, Switzerland) and 50 μl urokinase (Calbiochem-Novabiochem GmbH, Bad Soden, Germany) or another appropriate protease are incubated at 30° C. After ca. 30 minutes and 30 cycles the absorption is determined at 405 nm by means of a microplate reader (Mediators PHL, Aureon Biosystems, Vienna, Austria). The Ki values were determined according to Dixon by linear regression using a computer program.

Another data set has as its target T4, urokinase (Homo sapiens, UniProt P00749).
T4 construct: purchased Calbiochem-Novabiochem GmbH, Bad Soden, Germany
The experiment in a line: In vitro inhibition of urokinase by WX-508 (Example 15). It is filed as biochemical. The protocol:
as §2

Data set [6] has as its target T1, Plasmin. The experiment in a line: In vitro inhibition of plasmin by WX-508 (Example 15). It is filed as biochemical. The protocol: as §2
The next data set has as its target uPA (Homo sapiens, UniProt P00749). To be noted: background, literature; read-out: Ki, uPA (inhibition constant); cited from earlier work.
Data set [7] relates to DU145 tumors (a prostate adenocarcinoma cell line). To be noted: SCID mice, orally 125 to 250 mg/kg/day; cited from earlier work.
In the next data set the test system is rat prostate carcinoma. To be noted: syngenic model for rat prostate carcinoma; cited from earlier work.
A further data set relates to mouse mammary carcinoma. To be noted: cited from earlier work.
Where [8] appears, read: 30 mg/kg, 30 mg/kg oral, read-out: c in the serum 1st analysis.
[9] abbreviates: 30 mg/kg, 30 mg/kg oral, read-out: c in the serum 2nd analysis.
Setting [10] is: 300 mg/kg, 300 mg/kg oral, read-out: c in the serum 1st analysis.
Setting [11] is: list of test substances of Example 17, read-out: Ki human uPA.
Setting [12] is: summary table, read-out: Ki uPA.
[13] abbreviates: 300 mg/kg, 300 mg/kg oral, read-out: c in the serum 2nd analysis.

T1 sequence (P00747 581-810 limits assumed, species assumed): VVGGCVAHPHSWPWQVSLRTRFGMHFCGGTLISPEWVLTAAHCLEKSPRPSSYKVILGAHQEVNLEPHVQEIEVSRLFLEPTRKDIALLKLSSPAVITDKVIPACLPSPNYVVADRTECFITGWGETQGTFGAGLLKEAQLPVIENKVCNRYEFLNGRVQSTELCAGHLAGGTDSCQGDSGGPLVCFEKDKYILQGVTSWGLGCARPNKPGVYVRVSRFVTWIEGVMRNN
T1 sequence (P00747 97-580 partner limits assumed, species assumed): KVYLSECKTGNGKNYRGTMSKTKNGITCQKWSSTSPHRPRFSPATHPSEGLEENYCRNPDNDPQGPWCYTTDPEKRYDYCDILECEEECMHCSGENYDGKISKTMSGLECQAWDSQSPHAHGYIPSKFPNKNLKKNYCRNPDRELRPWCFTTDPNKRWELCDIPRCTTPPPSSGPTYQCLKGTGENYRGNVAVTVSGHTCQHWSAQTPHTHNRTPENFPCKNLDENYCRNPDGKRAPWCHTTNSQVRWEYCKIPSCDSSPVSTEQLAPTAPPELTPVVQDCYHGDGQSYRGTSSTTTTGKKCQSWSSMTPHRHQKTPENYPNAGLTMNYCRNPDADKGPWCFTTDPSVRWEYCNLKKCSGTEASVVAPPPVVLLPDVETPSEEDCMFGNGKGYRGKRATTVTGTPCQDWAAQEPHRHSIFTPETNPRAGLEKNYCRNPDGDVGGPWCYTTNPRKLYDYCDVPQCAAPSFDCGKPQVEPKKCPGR
Sequence of PK (P03952 20-638): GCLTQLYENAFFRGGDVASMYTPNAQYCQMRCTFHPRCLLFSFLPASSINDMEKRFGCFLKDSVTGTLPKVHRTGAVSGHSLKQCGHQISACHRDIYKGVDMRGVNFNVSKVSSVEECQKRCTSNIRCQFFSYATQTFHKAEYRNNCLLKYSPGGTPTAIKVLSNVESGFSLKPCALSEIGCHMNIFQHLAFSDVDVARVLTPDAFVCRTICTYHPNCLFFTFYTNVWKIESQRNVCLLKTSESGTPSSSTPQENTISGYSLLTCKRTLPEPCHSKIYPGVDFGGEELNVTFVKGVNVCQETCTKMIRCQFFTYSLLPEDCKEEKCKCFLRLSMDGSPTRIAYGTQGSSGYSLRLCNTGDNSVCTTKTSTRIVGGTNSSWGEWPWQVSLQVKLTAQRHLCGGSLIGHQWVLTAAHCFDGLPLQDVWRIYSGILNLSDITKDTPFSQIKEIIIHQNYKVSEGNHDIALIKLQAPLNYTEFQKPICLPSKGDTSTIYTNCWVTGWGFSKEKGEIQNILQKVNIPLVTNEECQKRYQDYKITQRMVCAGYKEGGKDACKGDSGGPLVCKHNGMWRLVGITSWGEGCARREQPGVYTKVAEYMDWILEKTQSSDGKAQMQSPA
Sequence of FXa (P00742 235-488 limits assumed): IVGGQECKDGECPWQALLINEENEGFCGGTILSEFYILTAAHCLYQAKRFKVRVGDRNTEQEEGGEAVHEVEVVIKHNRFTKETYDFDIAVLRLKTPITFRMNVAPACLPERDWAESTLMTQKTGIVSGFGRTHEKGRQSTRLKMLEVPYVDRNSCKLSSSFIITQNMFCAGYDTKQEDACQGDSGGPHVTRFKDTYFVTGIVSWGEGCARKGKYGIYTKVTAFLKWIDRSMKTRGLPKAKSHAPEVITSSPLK
Sequence of FXa (P00742 41-179 partner limits assumed): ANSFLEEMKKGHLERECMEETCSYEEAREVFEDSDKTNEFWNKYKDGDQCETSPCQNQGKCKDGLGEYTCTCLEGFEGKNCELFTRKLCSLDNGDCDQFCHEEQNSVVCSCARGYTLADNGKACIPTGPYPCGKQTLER

For the compound `N=C(N)NC(=O)c1nc(Cl)c(N)nc1N` [amiloride], the “formation of lung metastases” value in data set [1] is “prevents the formation of lung metastases”.
In the case of `N=C(N)Nc1ccc(CNC(=O)CNC(=O)C(CO)NS(=O)(=O)Cc2ccc(Cl)cc2)cc1` (stereo not drawn) [WX-C340, 4-Chlorobenzyl-sulfonyl-(D)-Ser-Gly-(4-guanidinobenzyl)amide hydrochloride], the Ki on PK turned out to be 216 µM; on FXa, 34 µM; at urokinase (uPA) (setting [11]) it was 0.01 µM; on urokinase (uPA) (read-out: Ki uPA) it was 0.01 µM; at urokinase (uPA) (setting [12]), 0.01 µM. In the data set on mammary carcinoma BN-472 (compared with the control group, P=0.006), the “reduction of the axillary lymph node weights” value is given as 73%. Besides, the “reduction in the number of lung foci” value in the data set with mammary carcinoma BN-472 (compared with the control group, P≦0.001) was 63%. Also, in the data set on mammary carcinoma BN-472 (P=0.141), the “reduction of the median tumor weight” value worked out at 29%. For the same compound, the “Ki Plasmin” value at Plasmin [2] and on Plasmin [2] (summary table) was “no inh. at 100 μM *)” throughout. Further, the concentration at 20 min in data set [3] (setting [8]) stood at 300 ng/mL; in data set [3] (setting [9]) it was 500 ng/mL; in [3] (setting [10]) it was 4500 ng/mL. The concentration at 40 min is 300 ng/mL in data set [3] (setting [8]), 800 ng/mL in data set [3] (setting [9]) and 4900 ng/mL in data set [3] (setting [10]). Besides, the concentration at 60 min in data set [3] (setting [8]) came out at 1400 ng/mL; in [3] (setting [9]), 2300 ng/mL; in data set [3] (setting [10]), 4300 ng/mL. In addition, the “c in the serum 1st analysis” value was determined as 51.8 µg/mL in data set [3] (time of sample collection 0), 5.3 µg/mL in data set [3] (time of sample collection 10) and 1.7 µg/mL in data set [3] (time of sample collection 30). For the same compound, the “Ki Thrombin” value on Thrombin [4] and on Thrombin [4] (summary table) was “no inh. at 100 μM *)” in each case. The “% amount in the basolateral compartment” value stood at 2.4% with Caco-2 cell monolayers (first value column), 0.2% with Caco-2 cell monolayers (second value column) and 0.1% with Caco-2 cell monolayers (third value column). For the same compound, the “Caco-2 assay % basolateral” value with Caco-2 cell monolayers (first series, first value) was 2.4%; in the data set on Caco-2 cell monolayers (first series, second value), 0.2%; with Caco-2 cell monolayers (first series, third value), 0.1%; in the data set with Caco-2 cell monolayers (second series, first value) it was 2.3%; with Caco-2 cell monolayers (second series, second value) it was 0.1%; in the data set with Caco-2 cell monolayers (second series, third value), 0.1%.
Regarding `N=C(N)Nc1ccc(CNC(=O)CNC(=O)[C@@H](CO)NS(=O)(=O)Cc2ccccc2)cc1` [WX-508, benzylsulfonyl-(D)-Ser-Gly-(4-guanidinobenzyl)amide hydrochloride], the Ki is 180 µM at PK; over 1000 µM at Thrombin [5]; over 200 µM on Plasmin [2]; over 200 µM at Plasmin [2] (summary table); 0.04 µM at urokinase; over 1000 µM at Plasmin [6]. The Ki at Thrombin [4] is over 350 µM; on Thrombin [4] (summary table), over 350 µM; on urokinase (uPA) (setting [11]), 0.034 µM; at urokinase (uPA) (read-out: Ki uPA), 0.034 µM; on urokinase (uPA) (setting [12]), 0.034 µM. In addition, the results for the concentration at 20 min in data set [3] (setting [8]), in data set [3] (setting [9]) and in data set [3] (setting [10]) were 300 ng/mL, 300 ng/mL and 3500 ng/mL, respectively. Moreover, the concentration at 40 min in [3] (setting [8]) was 5700 ng/mL; in data set [3] (setting [9]), 4500 ng/mL; in data set [3] (setting [10]), 7500 ng/mL; in data set [3] (setting [13]), 8300 ng/mL. Also, the concentration at 60 min in data set [3] (setting [8]) was found to be 80 ng/mL; in [3] (setting [9]), 90 ng/mL; in data set [3] (setting [10]), 5400 ng/mL; in data set [3] (setting [13]), 5800 ng/mL. In addition, the “c in the serum 1st analysis” value in data set [3] (time of sample collection 0) was determined as 41.1 µg/mL; in [3] (time of sample collection 10) it was 4.3 µg/mL; in data set [3] (time of sample collection 30), 0.7 µg/mL. In addition, the “c in the serum 2nd analysis” value in data set [3] (time of sample collection 0) amounted to 55.5 µg/mL; in data set [3] (time of sample collection 10) it was 4.7 µg/mL; in [3] (time of sample collection 30) it was 0.2 µg/mL. Besides, the “% amount in the basolateral compartment” value in the data set with Caco-2 cell monolayers (first value column) is listed as 0.2%; with Caco-2 cell monolayers (second value column), 0.1%; in the data set on Caco-2 cell monolayers (third value column), 0.7%. The “Caco-2 assay % basolateral” value in the data set with Caco-2 cell monolayers (first series, first value) stood at 0.2%; with Caco-2 cell monolayers (first series, second value), 0.1%; in the data set on Caco-2 cell monolayers (first series, third value) it was 0.7%.
For `N=C(N)c1ccc(N)cc1` [p-Aminobenzamidine], at uPA, the Ki is 82 µM. For the same compound, in [7], the “growth rate of DU145 tumors” value was “considerable decrease in the growth rate” and the side-effects entry is reported as “negligibly small”.
On to `N=C(N)c1cc2c(I)cccc2s1` [B428, 4-iodo-benzo[b]-thiophene-2-carboxamidine], for which the “tumor growth and formation of metastases” value was “decrease in tumor growth and formation of metastases” in the data set on rat prostate carcinoma; “decrease in tumor growth and formation of metastases” with mouse mammary carcinoma (syngenic model for mouse mammary carcinoma). Also, in the data set with mouse mammary carcinoma (administered together with the anti-oestrogen Tamoxifen), the primary tumor growth result is “further decrease of primary tumor growth”.

By Ki is commonly meant the equilibrium dissociation constant of an inhibitor or competing ligand from its target.
